Source: patent US4912120A, “3,5-substituted 4,5-dihydroisoxazoles as transglutaminase inhibitors” (Syntex (U.S.A.) Inc., priority 1987, dated 1990)

How the values were obtained:
[1] = test system: blackhead-like lesions and whitehead-like lesions (spontaneous acne-like condition); assay: Mexican Hairless Dog Assays; type: in vivo, Mexican hairless beagle dog; conditions: two dogs
Text: To determine the utility of the compounds of Formula (I) for treating acne in mammals, one can use the procedures described by DeYoung, et al. Another model examined is the Mexican hairless beagle dog, a procedure for which is set forth in Example 10.
Gel vehicle alone was not effective.

[2] = Toxicity of the Compounds of Formula I; type: in vivo; conditions: 10 mg/Kg intraperitoneally daily for 14 days, 5 male and 5 female CDI mice per group
Method: Three groups, each composed of 5 male and 5 female CDI mice, were injected intraperitoneally with 10 mg/Kg of 5-(N-benzyloxycarbonyl-L-phenylalaninamidomethyl)-3-bromo-4,5-dihydroisoxazole or 5-(N-benzyloxycarbonyl-L-para-tyrosinamidomethyl)-3-chloro-4,5-dihydroisoxazole daily for 14 days.

psoriatic plaque = assay: Psoriatic plaque chamber test (Example 13); type: in vivo, humans; conditions: 1% w/w in propylene glycol/Carbopol 940 gel, 0.05 ml in chamber on psoriatic plaque, five subjects, applied days 1-16, readings to day 23
Method: To determine the utility of the compounds of Formula (I) for treating psoriasis in humans, the procedure of Example 13 can be followed.
5-(N-benzyloxycarbonyl-L-phenylalaninamidomethyl)-3-bromo-4,5-dihydroisoxazole was levigated into a gel vehicle (see Example 14) to afford a concentration of 1% w/w. The gel vehicle contained primarily propylene glycol which was gelled with Carbopol 940.
0.05 ml of the gel containing active ingredient was filled into a 1 mm deep teflon chamber (Durhing chamber) which was then applied to the psoriatic plaque of each of the five subjects. The plaque was then covered with Scanpor® adhesive tape. The gel was applied on days 1, 3, 5, 8, 10, 12 and 16. Each time, fresh gel, chamber, and tape were used. Readings were taken on Days 5, 10, 12, 16 and 23 (one week off therapy). The presence or absence of a normal appearing epidermis was evaluated using a scale of 0 to 2.

transglutaminase = conditions: prior-art inhibitors; cited from earlier work
[3] = 2.5% in gel (40% dimethylisosorbide, 55% ethanol, 2.5% carbomer 940)
[4] = 2.5% in gel (2.5% Klucel, 10% diisopropyl adipate, 80% ethanol, 5% propylene glycol), once daily, 14 days

| Structure (SMILES) | clearing of lesions [1, 3] | clearing of lesions [1, 4] | toxic effects [2] | also measured |
| --- | --- | --- | --- | --- |
| O=C(N[C@@H](Cc1ccc(O)cc1)C(=O)NCC1CC(Br)=NO1)OCc1ccccc1 (mixture of isomers) [5-(N-benzyloxycarbonyl-L-paratyrosinamidomethyl)-3-bromo-4,5-dihydroisoxazole] | positive results |  |  |  |
| O=C(N[C@@H](Cc1ccccc1)C(=O)NCC1CC(Br)=NO1)OCc1ccccc1 (mixture of isomers) [5-(N-benzyloxycarbonyl-L-phenylalaninamidomethyl)-3-bromo-4,5-dihydroisoxazole] | positive results | clearing of the majority of blackhead-like lesions and many whitehead-like lesions | No toxic effects | activity against psoriasis (presence or absence of normal appearing epidermis, scale of 0 to 2) (psoriatic plaque): shows activity against psoriasis |
| O=C(N[C@@H](Cc1ccccc1)C(=O)NCC1CC(Cl)=NO1)OCc1ccccc1 (mixture of isomers) [5-(N-benzyloxycarbonyl-L-phenylalaninamidomethyl)-3-chloro-4,5-dihydroisoxazole] | positive results | good clearing |  |  |
| O=C(N[C@@H](Cc1ccc(O)cc1)C(=O)NCC1CC(Cl)=NO1)OCc1ccccc1 (stereo partly drawn) [5-(N-benzyloxycarbonyl-L-para-tyrosinamidomethyl)-3-chloro-4,5-dihydroisoxazole] |  |  | No toxic effects |  |
| NCCSSCCN [cystamine] |  |  |  | effective concentration (transglutaminase): greater than 10^-3 M; specificity for transglutaminases (transglutaminase): lacks specificity for transglutaminases |
